Where two headings read alike, the source gives them in different places.

Data on five compounds can be found in US20120108501A1, “Protease Inhibitors” (priority 2009, published 2012).

A short description of series [1]: Pharmacokinetics of released PEGylated protease inhibitor following P.O. administration of prodrugs in rats. Further details: AUCall Mean: concentration or dose not given beside the values; C24 Mean: unit not given here. Type of series: in vivo, male Sprague-Dawley rats. As to conditions: rats (n = 4-5); for C24 Mean: concentration at 24 hours. An outline of the steps: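 Prodrugs given orally to male Sprague-Dawley rats, with serial blood via jugular catheter into K2EDTA. Plasma levels of test article or released PEGylated inhibitor measured by LC-MS/MS. PK parameters from noncompartmental analysis.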

A short description of series [2]: Pharmacokinetics of PEGylated protease inhibitor prodrugs in rats. The following applies: prodrug in plasma. Set-up: AUCall / AUC: concentration or dose not given beside the values. It counts as in vivo, male Sprague-Dawley rats. A digest of the protocol:
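Male Sprague-Dawley rats dosed; serial blood drawn via jugular vein catheters into K2EDTA and processed to plasma. Test article or released PEGylated molecule quantified by LC-MS/MS; Cmax, AUCall, T½ and MRTlast estimated noncompartmentally.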

The mark [3] stands for this setting: mPEG3-atazanavir in plasma after PO administration of mPEG3-ATV or of the listed prodrug.
Setting [4] is: mPEG5-atazanavir in plasma after PO administration of mPEG5-ATV or of the listed prodrug.

Broadly, the Cmax is the maximum level reached in the sampled fluid or tissue. As to `COCCOCCOCCOC(=O)NC(C(=O)NC(Cc1ccccc1)C(CN(Cc1ccc(-c2ccccn2)cc1)NC(=O)C(NC(=O)OC)C(C)(C)C)OC(=O)CNC(=O)C(N)CC(C)C)C(C)(C)C.Cl` (stereo not drawn) [Leu-Gly-mPEG3-Atazanavir, Leu-Gly-mPEG3-Atazanavir Hydrochloride], in series [1] (setting [3]), the “AUCall Mean” value came to 44.9 ng·h/mL, the “Cmax Mean” value is given as 2.10 ng/mL, the “MRT last Mean” value was found to be 15.9 h and the “Tmax* Median” value was 4.00 h. The MRTlast in series [2] was 0.597 ± 0.376 h. In addition, in series [2] (mean ± SD), the AUCall was found to be 0.955 ± 1.02 ng·h/mL and the Cmax was 0.833 ± 0.676 ng/mL.

Take `COCCOCCOCCOCCOCCOC(=O)NC(C(=O)NC(Cc1ccccc1)C(CN(Cc1ccc(-c2ccccn2)cc1)NC(=O)C(NC(=O)OC)C(C)(C)C)OC(=O)COCCOC(=O)C(N)Cc1ccccc1)C(C)(C)C.Cl` (stereo not drawn) [mPEG5-Atazanavir-CME-phenylalanine HCl]: in series [1] (setting [4]), the “AUCall Mean” value is 54.1 ng·h/mL, the “Cmax Mean” value is reported as 2.84 ng/mL, the “MRT last Mean” value came out at 14.0 h and the “Tmax Median” value amounted to 12.0 h. The MRTlast in series [2] was 0.25 h. For the same compound, in series [2] (mean ± SD), the AUCall is 0.0554 ± 0.096 ng·h/mL and the Cmax is 0.222 ± 0.384 ng/mL.

Consider `CCOC(=O)O[C@@H](CN(Cc1ccc(-c2ccccn2)cc1)NC(=O)[C@@H](NC(=O)OC)C(C)(C)C)[C@H](Cc1ccccc1)NC(=O)[C@@H](NC(=O)OCCOCCOCCOCCOCCOC)C(C)(C)C.Cl` [mPEG5-Atazanavir - Ethyl Carbonate HCl, mPEG5-Atazanavir Ethyl Carbonate], for which, in series [1] (setting [4]), the “C24 Mean” value is recorded as 2.76, the “AUCall Mean” value worked out at 93.2 ng·h/mL, the “Cmax Mean” value stood at 16.7 ng/mL and the “MRT last Mean” value was found to be 8.51 h. Moreover, in series [1] (setting [4]), the “Tmax Median” value was determined as 2.00 h. Moreover, in series [2], the MRTlast came to 2.6 ± 0.514 h and the “t½(z)” value worked out at 7.46 ± 4.14 h. Also, the “Cmin(24 hr)” value in series [2] (24 hr) is recorded as 2.19 ± 0.700 ng/mL. Besides, in series [2] (mean ± SD), the AUCall is 2250 ± 389 ng·h/mL and the highest concentration (Cmax) was 740 ± 253 ng/mL.

In general, MRT last refers to the average time that molecules of a dose stay in the body. For orientation: AUC means the area under the concentration-time curve, a measure of exposure. Consider `COCCOCCOCCOCCOCCOC(=O)N[C@H](C(=O)N[C@@H](Cc1ccccc1)[C@H](CN(Cc1ccc(-c2ccccn2)cc1)NC(=O)[C@@H](NC(=O)OC)C(C)(C)C)OC(=O)[C@H](CC(C)C)NC(=O)[C@@H](N)CC(C)C)C(C)(C)C.Cl` [Leu-Leu-mPEG5-Atazanavir HCl, Leu-Leu-mPEG5-Atazanavir Hydrochloride], for which, in series [1] (setting [4]), the “C24 Mean” value turned out to be 2.98, the “AUCall Mean” value was 118 ng·h/mL, the “Cmax Mean” value is on record as 14.1 ng/mL and the “MRT last Mean” value is 10.7 h. In series [1] (setting [4]), the “Tmax Median” value stood at 0.750 h. The MRT last in series [2] (male, Sprague-Dawley, rat, in vivo) was found to be 3.59 ± 3.27 h. The concentration at 24 hr in series [2] (male, Sprague-Dawley, rat, in vivo, 24 hr, read-out: Cmin(24 hr)) came out at 0.201 ± 0.401 ng/mL. Besides, the AUC in series [2] (male, Sprague-Dawley, rat, in vivo, mean ± SD) was determined as 24.9 ± 6.24 ng·h/mL. Also, the Cmax in series [2] (male, Sprague-Dawley, rat, in vivo, mean ± SD, read-out: Cmax) was 7.21 ± 0.417 ng/mL. Further, the half-life in series [2] (male, Sprague-Dawley, rat, in vivo, read-out: t½(z) (converted)) was 3.6 ± 2.59 h.

Turning to Phe-Gly-mPEG3-Atazanavir Hydrochloride, in series [1] (setting [3]), the “AUCall Mean” value is 69.6 ng·h/mL, the “Cmax Mean” value amounted to 5.02 ng/mL, the “MRT last Mean” value was found to be 12.6 h and the “Tmax* Median” value worked out at 1.00 h. Also, in series [2], the MRTlast amounted to 0.602 ± 0.164 h and the “t½(z)” value came to 1.24 ± 0.237 h. Also, in series [2] (mean ± SD), the AUCall came out at 6.07 ± 3.82 ng·h/mL and the Cmax was 7.38 ± 6.67 ng/mL.
